Patent US20210137883A1, “ANTI-NEOPLASTIC COMPOUNDS AND METHODS TARGETING QSOX1” (ARIZONA BOARD OF REGENTS ON BEHALF OF ARIZONA STATE …, priority 2015, published 2021)
“Also recorded” adds a separate entry of the source.

Tests used:
recombinant QSOX1 = biological target: T1, recombinant QSOX1 (Homo sapiens, UniProt O00391); experiment: Fluorogenic HTS assay for QSOX1 inhibitors (H2O2 detection, RNAse A substrate); assay type: biochemical; details: library screen with recombinant QSOX1
T1 construct: made in house
T1 sequence (O00391 30-747): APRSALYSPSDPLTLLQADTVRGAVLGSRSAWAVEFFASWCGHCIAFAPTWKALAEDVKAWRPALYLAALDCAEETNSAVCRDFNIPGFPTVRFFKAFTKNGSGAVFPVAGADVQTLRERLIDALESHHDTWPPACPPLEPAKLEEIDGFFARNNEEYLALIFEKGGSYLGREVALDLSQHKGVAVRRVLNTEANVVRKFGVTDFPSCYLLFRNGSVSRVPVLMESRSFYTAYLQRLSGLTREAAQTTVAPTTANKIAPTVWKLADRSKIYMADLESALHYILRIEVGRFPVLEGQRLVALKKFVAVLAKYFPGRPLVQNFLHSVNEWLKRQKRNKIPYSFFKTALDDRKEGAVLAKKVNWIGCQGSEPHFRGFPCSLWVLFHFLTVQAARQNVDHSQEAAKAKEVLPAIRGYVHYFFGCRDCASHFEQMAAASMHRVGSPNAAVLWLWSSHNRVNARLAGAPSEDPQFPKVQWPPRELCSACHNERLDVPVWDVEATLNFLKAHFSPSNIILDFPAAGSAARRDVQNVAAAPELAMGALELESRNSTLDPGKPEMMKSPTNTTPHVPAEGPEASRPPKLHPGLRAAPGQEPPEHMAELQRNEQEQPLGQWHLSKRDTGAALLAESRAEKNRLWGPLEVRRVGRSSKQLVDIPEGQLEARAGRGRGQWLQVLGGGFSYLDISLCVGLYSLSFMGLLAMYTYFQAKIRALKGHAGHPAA
Experimental: FIG. 7. An in vitro assay to screen for QSOX1 inhibitors; Fluorogenic assay (also can be HTS). Enzymatically active recombinant QSOX1 is incubated with individual compounds in individual wells of a 384 well plate. […] Therefore, no fluorescence is observed.
In screening for inhibitors, recombinant QSOX1 was produced and tested in fluorogenic assays to make sure it was active. The recombinant enzyme then was sent to the Sanford Burnham Institute for use in the same/similar assay to screen libraries for chemical compounds that inhibit the enzymatic activity of QSOX1.
A peptide was identified in plasma from pancreatic cancer patients that mapped back to the QSOX1 parent protein (FIG. 1, prior art). […] A high throughput screening assay (HTS) was employed to screen a library of chemical compounds (50,000 compounds). The assay detects H2O2 produced by QSOX1 when it is enzymatically active (FIG. 7). Inhibition of the enzymatic activity of QSOX1 (with a chemical compound) suppresses H2O2 production, decreasing fluorescent or bioluminescent signal in the assay.

[1] = test system: MCF-10A breast cancer cell lines containing mutant p53; experiment: Boyden chamber invasion through Matrigel, MCF-10A p53 breast cell lines; assay type: cell-based; details: FIG. 13
Text: FIG. 13. […] P530E is MCF-10A non-malignant breast cell line containing wild type (non-mutated) p53. R248W, R273C and Y220C are three different p53 mutants expressed in MCF-10A breast cells.

[2] = test system: MIAPaCa2 pancreatic tumor cells; experiment: Boyden chamber invasion through Matrigel, MIAPaCa2; assay type: cell-based; details: FIG. 13
myeloma cell lines = experiment: MTT assay on myeloma cell lines; assay type: cell-based; details: 2-fold serial dilutions, at higher doses, FIG. 15
Experimental: FIG. 15. MTT assay results from exposure of myeloma cell lines to SBI-183. Assay conditions: 25,000 cells per well were plated in a 96-well flat-bottom plate. 2-fold serial dilutions of SBI-183 were added to each well. % cell viability was calculated using the following formula: cmpd+cells/vehicle+cells*100%.

[3] = test system: UOK117 renal cell carcinoma xenografts; experiment: UOK117 renal cell carcinoma xenografts in nude mice; assay type: in vivo; details: oral lavage 20 mg/kg/day from day 7, compared to vehicle-treated and untreated mice, FIG. 14
Experimental: FIG. 14. […] Mice were inoculated with 1 million tumor cells in the hind flank. Treatment was started on day 7 by oral lavage at 20 mg/kg/day.

786-O cells = experiment: Boyden chamber invasion through Matrigel, 786-O kidney cancer cells; assay type: cell-based; details: dose-dependent; FIG. 11
Text: FIG. 11. Effect of Compound SBI-0143183 on Kidney cancer invasion through Matrigel (786-0).

786-O = experiment: Detection of laminin-α4 deposition with anti-LAMA4 antibody in kidney cancer cells; assay type: cell-based; details: 15 uM SBI-183; 786-O kidney cancer cells; FIG. 12
Experimental: FIG. 12. 786-O Detection of laminin-α4 using anti-LAMA4 antibody in kidney cancer cells after incubation with 15uM SBI-183. […] Secondary alone indicates the goat anti-mouse antibody that was used to detect binding of anti-LAMA4.

Q: For `COc1cccc(C(=O)Nc2ccc(N3CCCC3)cc2)c1` [SBI-183, 3-methoxy-N-[4-(1-pyrrolidinyl)phenyl]benzamide], which “inhibition of the enzymatic activity of QSOX1” value (recombinant QSOX1) is on record?
A: Its value is “inhibitor”.

Q: What about the “invasion through Matrigel of MCF-10A breast cell lines (p53 overexpress and mutant p53 R248W, R273C, Y220C)” value [1] of the same molecule?
A: The value was “suppresses invasion”.

Q: And the “invasion through Matrigel of MIAPaCa2 pancreatic tumor cells” value [2]?
A: The value was “suppresses invasion”.

Q: And the “cell viability (MTT)” value (myeloma cell lines)?
A: The value was “decreased viability”.

Q: And the “growth of UOK117 renal cell carcinoma xenografts” value [3]?
A: Its value is “suppresses the growth”.

Q: And the “invasion of 786-O cells through Matrigel” value (786-O cells)?
A: The value was “suppressed invasion”.

Q: What about the “deposition of laminin-α4 into the extracellular matrix” value (786-O) of the same molecule?
A: The value was “not deposited; also recorded: inhibits deposition”.
